{"source": "patent US6503952B2", "about": "“Triple antimicrobial composition” (The Trustees of Columbia University in the City of New York, priority 1995, dated 2003)", "key": {"Staphylococcus aureus [1]": {"system": "Staphylococcus aureus", "assay": "Colony counts with CHX and PCMX (in 5% isopropanol) in the presence of blood", "type": "cell-based", "conditions": "Table 11: in 5% isopropanol, control 3 × 10^6", "protocol": "[…] After one minute, a 50 microliter aliquot from each sample was diluted to a volume of 10 ml with LTSB drug inactivating medium (5% Tween 80, 2% lecithin, 0.6% sodium oleate, 0.5% sodium thiosulfate, 0.1% protease peptone and 0.1% tryptone), and then 0.5 ml of the diluted culture was plated on trypticase soy agar plates. The plates were incubated at 37° C. for 24 hours, and then colony counts per milliliter of the original 1 ml antimicrobial containing culture were determined."}, "Staphylococcus aureus [2]": {"system": "Staphylococcus aureus", "assay": "Rate of kill: colony counts after one minute exposure of Staphylococcus aureus in TSB broth with 20% serum", "type": "cell-based", "conditions": "for CFU/mL: Table 15: single agent, control 2.0 × 10^7", "protocol": "To produce each sample, 0.1 ml of a ten-fold concentrated antimicrobial solution was added to 0.9 ml of TSB broth containing 20% serum and 107 colony forming units (CFU) of Staphylococcus aureus. After one minute, a 50 microliter aliquot from each sample was diluted to a volume of 10 ml with LTSB drug inactivating medium (5% Tween 80, 2% lecithin, 0.6% sodium oleate, 0.5% sodium thiosulfate, 0.1% protease peptone and 0.1% tryptone), and then 0.5 ml of the diluted culture was plated on trypticase soy agar plates. The plates were incubated at 37° C. for 24 hours, and then colony counts per milliliter of the original 1 ml antimicrobial containing culture were determined.\nUsing the same methods set forth in example section 5, above, the rate of kill of compositions comprising PHMB, PCMX, BZK and PXE were tested. […] Synergy was also observed among 0.1% PXE+0.05% PHMB+0.05% PCMX."}}}
{"molecule": "[H]/N=C(\\N/C(=N/[H])NCCCCCCNC(=N)NC(=N)Nc1ccc(Cl)cc1)Nc1ccc(Cl)cc1", "note": "[1% CHX, chlorhexidine]", "values": [{"measurement": "CFU/ml", "setting": "Staphylococcus aureus [1]", "value": "1 × 10^4 CFU/ml"}]}
{"molecule": "[H]/N=C(\\N/C(=N/[H])NCCCCCCNC(=N)NC(=N)Nc1ccc(Cl)cc1)Nc1ccc(Cl)cc1", "note": "[.5% CHX, chlorhexidine]", "values": [{"measurement": "CFU/ml", "setting": "Staphylococcus aureus [1]", "value": "1 × 10^5 CFU/ml"}]}
{"molecule": "benzalkonium chloride [BZK]", "values": [{"measurement": "CFU/mL", "setting": "Staphylococcus aureus [2]; concentration 0.02%", "value": "2.0 × 10^7 CFU/mL"}]}
{"molecule": "parachlorometaxylenol [.5% PCMX]", "values": [{"measurement": "CFU/ml", "setting": "Staphylococcus aureus [1]", "value": 0, "unit": "CFU/ml"}]}
{"molecule": "parachlorometaxylenol [.25% PCMX]", "values": [{"measurement": "CFU/ml", "setting": "Staphylococcus aureus [1]", "value": "1.4 × 10^4 CFU/ml"}]}
{"molecule": "parachlorometaxylenol [.125% PCMX]", "values": [{"measurement": "CFU/ml", "setting": "Staphylococcus aureus [1]", "value": "1 × 10^6 CFU/ml"}]}
{"molecule": "parachlorometaxylenol [PCMX]", "values": [{"measurement": "decrease in the number of CFU relative to control (factor / fold)", "setting": "Staphylococcus aureus [2]; 2.5% ISOPR samples, relative to the control named in the text (A1, A2, A4 or the no-antimicrobial control)", "value": "ten"}, {"measurement": "CFU/mL", "setting": "Staphylococcus aureus [2]; concentration 0.05%", "value": "5.0 × 10^6 CFU/mL"}, {"measurement": "CFU/mL", "setting": "Staphylococcus aureus [2]; concentration 0.1%", "value": "1.6 × 10^3 CFU/mL"}]}
{"molecule": "polyhexamethylene biguanide [PHMB]", "values": [{"measurement": "CFU/mL", "setting": "Staphylococcus aureus [2]; concentration 0.025%", "value": "5.0 × 10^6 CFU/mL"}, {"measurement": "CFU/mL", "setting": "Staphylococcus aureus [2]; concentration 0.05%", "value": "2.0 × 10^6 CFU/mL"}, {"measurement": "CFU/mL", "setting": "Staphylococcus aureus [2]; concentration 0.1%", "value": "4.0 × 10^6 CFU/mL"}]}
